Measured values as given in patent US7868043B2, “Mesophasic forms of (3S)-aminomethyl-5-methyl-hexanoic acid prodrugs and methods of use” (Xenoport, Inc., priority 2008, dated 2011).

Assay: Intracolonic bioavailability in monkeys
Assay type: in vivo, Cynomologous monkeys
Details: monkey, whole blood; bioavailability of pregabalin (F %, (SD)) after intracolonic administration, 10 mg-eq pregabalin/kg, suspension, 4 male monkeys, blood LC-MS/MS; salts before crystallization; read-out: Intracolonic Bioavailability Fic (%)
Procedure: Male Cynomologous monkeys weighing about 2.3 kg were used in the studies. Monkeys were fasted overnight prior to the study until 4 hours after dosing. Water was provided ad libitum.
Calcium (3S)-{[(1R)-isobutanoyloxyethoxy]carbonylaminomethyl}-5-methyl-hexanoate (5), calcium (3S)-{[(1S)-isobutanoyloxyisobutoxy]carbonylaminomethyl}-5-methyl-hexanoate (6), or calcium (3S)-{[(1R)-benzoyloxyethoxy]carbonylaminomethyl}-5-methyl-hexanoate (7) (obtained as described in Examples 4, 8, and 12, respectively, and before crystallization according to Examples 13, 14, and 15, respectively) were prepared as a suspension (21.4 mg/mL) in 0.5% methyl cellulose/0.1% Tween-80 in NaH2PO4 pH 7.02.
Calcium (3S)-{[(1R)-isobutanoyloxyethoxy]carbonylaminomethyl}-5-methyl-hexanoate (5), calcium (3S)-{[(1S)-isobutanoyloxyisobutoxy]carbonylaminomethyl}-5-methyl-hexanoate (6), or calcium (3S)-{[(1R)-benzoyloxyethoxy]carbonylaminomethyl}-5-methyl-hexanoate (7) (1 mL/kg; 10 mg-eq pregabalin/kg) were administered intracolonically to 4 monkeys. […]
Blood samples were analyzed by a sensitive and specific LC-MS/MS method for simultaneous determination of (3S)-{[(1R)-isobutanoyloxyethoxy]carbonylaminomethyl}-5-methyl-hexanoate, (3S)-{[(1S)-isobutanoyloxyisobutoxy]carbonylaminomethyl}-5-methyl-hexanoate, or (3S)-{[(1R)-benzoyloxyethoxy]carbonylaminomethyl}-5-methyl-hexanoate; and pregabalin. […]

CC(C)C[C@H](CN)CC(=O)O [Pregabalin, (3S)-aminomethyl-5-methyl-hexanoic acid]
bioavailability: 4%
